Data as given in US7153869B2, “Substituted amino acids as erythropoietin mimetics” (priority 1998, dated 2006).
Like-named read-outs stand apart in the source and are kept apart here.

Molecular target: T1, EBP-Ig (N-terminal 225 amino acids of the human EPO receptor joined to an Ig heavy chain) (Homo sapiens, UniProt P19235)
T1 construct: Ig heavy chain (fusion partner); made in house; host or cells: NSO cells (secreted into conditioned media)
T1 sequence (P19235 25-250 limits assumed): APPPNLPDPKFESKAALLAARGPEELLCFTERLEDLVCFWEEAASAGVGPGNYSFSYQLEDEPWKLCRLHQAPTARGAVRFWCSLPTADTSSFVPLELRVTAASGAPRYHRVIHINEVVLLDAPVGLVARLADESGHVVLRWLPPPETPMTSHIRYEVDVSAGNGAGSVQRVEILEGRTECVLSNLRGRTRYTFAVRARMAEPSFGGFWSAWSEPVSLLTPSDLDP
Assay: Inhibition of [125I]EPO binding to immobilized EBP-Ig (EPO binding protein-Ig), scintillation Flash plate competition assay
Conditions: for IC30 μM (Inhibition of EPO binding to EBP-Ig): 0–500 μM test compound; for % inh @ 50 μM (Inhibition of EPO binding to EBP-Ig): 50 μM test compound, average % inhibition

[1] = read-out: % inh @ 50 μM (Inhibition of EPO binding to EBP-Ig)
[2] = read-out: IC50, μM (Inhibition of EPO binding to EBP-Ig), 0.5 nM [125I]EPO, concentration reducing corrected total binding to 50%

NCCCCC(C(=O)NCc1ccccc1)N(CC=Cc1ccccc1)CC=Cc1ccccc1 (centres unmarked) [compound 235]
IC30 μM (Inhibition of EPO binding to EBP-Ig) (0.5 nM [125I]EPO): 20 µM
inhibition at 50 µM [1]: 49%
inhibition at 50 µM (read-out: EPO/EBP-Ig % inh @ 50 μM, 50 μM compound, Table 10): 49%
IC50 [2]: 50 µM

COC(=O)[C@H](COC(C)(C)C)NC/C=C/c1ccc(-c2ccccc2)cc1 [compound 353]
EPO/EBP-Ig % inh @ 50 μM (50 μM compound, Table 20A): 24%

CC(C)(C)OC(=O)C(CCCCNC(=O)OCc1ccccc1)N(C/C=C/c1ccccc1)C/C=C/c1ccccc1 (centres unmarked) [compound 173]
EPO/EBP-Ig % inh @ 50 μM (50 μM compound, Table 9): 5%

COC(=O)C(CCCCN)N(C/C=C/c1cccc(Oc2ccccc2)c1)Cc1cccc(Oc2ccccc2)c1 (centres unmarked) [compound 137]
IC50: 30 µM
IC30 μM (Inhibition of EPO binding to EBP-Ig) (0.5 nM [125I]EPO): 5 µM
inhibition at 50 µM [1]: 60%

CC(=O)O.COC(=O)[C@H](CO)N(C/C=C/c1cccc(Oc2ccc(C(C)(C)C)cc2)c1)C/C=C/c1cccc(Oc2ccc(C(C)(C)C)cc2)c1 [compound 298]
EPO/EBP-Ig % inh @ 50 μM (50 μM compound, Table 16A): 1%

COC(=O)[C@H](CCC(=O)OC(C)(C)C)NC/C=C/c1ccc2ccccc2c1 [compound 333]
EPO/EBP-Ig % inh @ 50 μM (50 μM compound, Table 19A): 16%

CC(C)(C)OC(=O)CC[C@H](NC/C=C/c1cccc(Oc2ccc(C(C)(C)C)cc2)c1)C(=O)OC(C)(C)C [compound 339]
EPO/EBP-Ig % inh @ 50 μM (50 μM compound, Table 19A): 10%

Cc1ccc(S(=O)(=O)Nc2ccc(/C=C/CN(Cc3ccc(OCc4ccccc4)cc3)C(CCC(=O)O)C(=O)O)cc2)cc1 (centres unmarked) [compound 87]
EPO/EBP-Ig % inh @ 50 μM (Table 5, 50 μM): 23%

CC(C)(C)OC(=O)CC(C(=O)NCCCCCCCCCCNC(=O)C(CC(=O)OC(C)(C)C)N(C/C=C/c1cccc(Oc2ccc(C(C)(C)C)cc2)c1)C/C=C/c1cccc(Oc2ccc(C(C)(C)C)cc2)c1)N(C/C=C/c1cccc(Oc2ccc(C(C)(C)C)cc2)c1)C/C=C/c1cccc(Oc2ccc(C(C)(C)C)cc2)c1 (centres unmarked) [compound 254]
EPO/EBP-Ig % inh @ 50 μM (50 μM compound, Table 12): −9%

COC(=O)[C@H](CCCCN)NC/C=C/c1ccc(C(=O)O)cc1 [compound 314]
EPO/EBP-Ig % inh @ 50 μM (50 μM compound, Table 18A): 12%

CC(C)(C)c1ccc(Oc2cccc(/C=C/CN[C@@H](CCC(=O)O)C(=O)O)c2)cc1.O=C(O)C(F)(F)F [compound 331]
EPO/EBP-Ig % inh @ 50 μM (50 μM compound, Table 19A): 18%

COC(=O)[C@H](C)NC/C=C/c1ccccc1 [compound 372]
EPO/EBP-Ig % inh @ 50 μM (50 μM compound): 0%

COC(=O)C(CCC(=O)OC(C)(C)C)N(CC=Cc1cccs1)CC=Cc1cccs1 (centres unmarked) [compound 59]
EPO/EBP-Ig % inh @ 50 μM (Table 3, 50 μM): 26%

CC(C)(C)OC(=O)CCC(C(=O)OC(C)(C)C)N(C/C=C/c1cccc(Oc2ccc(C(C)(C)C)cc2)c1)C/C=C/c1cccc(Oc2ccc(C(C)(C)C)cc2)c1 (centres unmarked) [compound 102]
EPO/EBP-Ig % inh @ 50 μM (Table 6, 50 μM): 5%

CC(C)(C)OC(=O)CCC(C(=O)NCCOCCOCCNC(=O)C(CCC(=O)OC(C)(C)C)N(Cc1ccc(OCc2ccccc2)cc1)Cc1ccc(OCc2ccccc2)cc1)N(Cc1ccc(OCc2ccccc2)cc1)Cc1ccc(OCc2ccccc2)cc1 (centres unmarked) [cpd 245, [N,N-bis(4-Benzyloxybenzyl)Glu(O-t-Bu)-NHCH2CH2OCH2]2]
EPO/EBP-Ig % inh @ 50 μM (Table 11, 50 μM): 0%

CC(C)(C)c1ccc(Oc2cccc(/C=C/CN[C@@H](CO)C(=O)O)c2)cc1.O=C(O)C(F)(F)F [compound 351]
EPO/EBP-Ig % inh @ 50 μM (50 μM compound, Table 20A): 29%

O=C(O)CCCC(=O)NCCCCC(C(=O)NCCCOCCCCOCCCNC(=O)C(CCCCNC(=O)CCCC(=O)O)N(Cc1ccc(OCc2ccccc2)cc1)Cc1ccc(OCc2ccccc2)cc1)N(Cc1ccc(OCc2ccccc2)cc1)Cc1ccc(OCc2ccccc2)cc1 (centres unmarked) [compound 266]
IC30 μM (Inhibition of EPO binding to EBP-Ig) (0.5 nM [125I]EPO): 1 µM
EPO/EBP-Ig % inh @ 50 μM (50 μM compound, Table 13): 82%
% inh @ 50 μM (Inhibition of EPO binding to EBP-Ig) (0.5 nM [125I]EPO): 82%
IC50 [2]: 4 µM

NCCCCC(C(=O)NCCOCCOCCNC(=O)C(CCCCN)N(Cc1ccc(OCc2ccccc2)cc1)Cc1ccc(OCc2ccccc2)cc1)N(Cc1ccc(OCc2ccccc2)cc1)Cc1ccc(OCc2ccccc2)cc1 (centres unmarked) [compound 261]
IC30 μM (Inhibition of EPO binding to EBP-Ig) (0.5 nM [125I]EPO): 1.5 µM
EPO/EBP-Ig % inh @ 50 μM (50 μM compound, Table 13): 51%
% inh @ 50 μM (Inhibition of EPO binding to EBP-Ig) (0.5 nM [125I]EPO): 51%
IC50 [2]: 2 µM

CC(C)(C)OC(=O)NCCCCC(C(=O)NCCCOCCOCCOCCCNC(=O)C(CCCCNC(=O)OC(C)(C)C)N(Cc1ccc(OCc2ccccc2)cc1)Cc1ccc(OCc2ccccc2)cc1)N(Cc1ccc(OCc2ccccc2)cc1)Cc1ccc(OCc2ccccc2)cc1 (centres unmarked) [compound 257]
EPO/EBP-Ig % inh @ 50 μM (50 μM compound, Table 13): −26%

O=C(O)C(F)(F)F.O=C(O)[C@H](CO)NC/C=C/c1cccc(Oc2ccc(Cl)c(Cl)c2)c1 [compound 349]
EPO/EBP-Ig % inh @ 50 μM (50 μM compound, Table 20A): 23%

Cc1ccc(Oc2cccc(CN(Cc3cccc(NCc4c(F)c(F)c(F)c(F)c4F)c3)C(CC(=O)O)C(=O)O)c2)cc1 (centres unmarked) [compound 72]
EPO/EBP-Ig % inh @ 50 μM (Table 4, 50 μM): −14%
